Measured values reported in patent publication US11419806B2, “Prebiotic oral care methods using a saccharide” (Colgate-Palmolive Company, priority 2013, dated 2022).

Columns and labels:
Test in all cases: Twenty-four hour optical density growth in BHI
Format in all cases: cell-based
Actinomyces viscosus = settings: A viscosus
Experimental: (§1) The extent of growth of the tested bacteria in response to selected saccharides (myo-inositol, D-lactitol, D-turanose and N-acetyl-D-mannosamine) was investigated by setting up growth curves in a nutritionally rich medium (brain heart infusion broth (BHI), Oxoid), over 24 hours. Late exponential growth phase liquid cultures were prepared by transferring the respective bacterium from blood agar plates to BHI and overnight incubation at 37° C. in an anaerobic atmosphere for A. viscosus, V. parvula, F. nucleatum, P. gingivalis, P. intermedia, T. forsythia, A. naeslundii, and C. sputigena, and in a 5% CO2 environment for S. salivarius, S. sanguinis, S. mitis, A. actinomycetemcomitans, S. mutans, S. sobrinus and S. gordonii. Overnight cultures were transferred to BHI and adjusted to a concentration of 1×10^7 CFU/ml (colony forming units per ml) by measuring the optical density at 600 nm (OD600) (BioRad SmartSpec 3000). For each strain, 200 μl of the bacterial suspension was added to a 96-well plate containing 20 μl of the respective saccharides. Final concentrations of the saccharides were set to 5, 10, 20 and 25 μmol/ml. […] Plates were incubated as previously described.
(§2) For each combination of bacterium/saccharide, and for each of their respective controls (i.e. the particular bacterium in the nutritionally rich medium with no saccharide), the optical density was measured at 630 nm (OD630) at 0 h and 24 h (Thermo Scientific Multiskan Ascent). Additionally, the OD630 for combinations of bacterium/saccharides grown in a 5% CO2 environment were also measured every hour between 0 h and 9 h.
(§3) The experiment was carried out on three different days (thus providing 3 biological replicas) and on each day the experiment was carried out in quadruple (thus providing 4 technical replicas) for each combination of bacterium with saccharide and for each control. For each day and for each combination, the average (mean) of the values obtained (as detailed above) for the four technical replicas was calculated to provide a single value for each combination on each day. The values shown in Tables 5a,b to 6a,b, below, are the average (mean) of the three single values obtained for each combination of bacterium with saccharide.

Capnocytophaga sputigena = settings: C sputigena
Experimental: as §1, §2, §3

Actinomyces naeslundii = settings: A naeslundii
Experimental: as §1, §2, §3

Prevotella intermedia = settings: P intermedia
Experimental: as §1, §2, §3

[1] = tested on: Aggregatibacter actinomycetemcomitans; settings: A actinomycetemcomitans
Experimental: as §1, §2, §3

Tannerella forsythia = settings: T forsythia
Experimental: as §1, §2, §3

Streptococcus sobrinus = settings: S sobrinus
Experimental: as §1, §2, §3

Veillonella parvula = settings: V parvula
Experimental: as §1, §2, §3

Streptococcus mitis = settings: S mitis
Experimental: as §1, §2, §3

Streptococcus gordonii = settings: S gordonii
Experimental: as §1, §2, §3

SMILES	extent of growth: maximal OD630 over 24 hr divided by maximal OD of control (control = 1) (Actinomyces viscosus; 5 μmol/ml)	extent of growth: maximal OD630 over 24 hr divided by maximal OD of control (control = 1) (Actinomyces viscosus; 10 μmol/ml)	extent of growth: maximal OD630 over 24 hr divided by maximal OD of control (control = 1) (Actinomyces viscosus; 20 μmol/ml)	extent of growth: maximal OD630 over 24 hr divided by maximal OD of control (control = 1) (Actinomyces viscosus; 25 μmol/ml)	extent of growth: maximal OD630 over 24 hr divided by maximal OD of control (control = 1) (Capnocytophaga sputigena; 5 μmol/ml)	extent of growth: maximal OD630 over 24 hr divided by maximal OD of control (control = 1) (Capnocytophaga sputigena; 10 μmol/ml)	extent of growth: maximal OD630 over 24 hr divided by maximal OD of control (control = 1) (Capnocytophaga sputigena; 20 μmol/ml)	extent of growth: maximal OD630 over 24 hr divided by maximal OD of control (control = 1) (Capnocytophaga sputigena; 25 μmol/ml)	extent of growth: maximal OD630 over 24 hr divided by maximal OD of control (control = 1) (Actinomyces naeslundii; 5 μmol/ml)	extent of growth: maximal OD630 over 24 hr divided by maximal OD of control (control = 1) (Actinomyces naeslundii; 10 μmol/ml)	extent of growth: maximal OD630 over 24 hr divided by maximal OD of control (control = 1) (Actinomyces naeslundii; 20 μmol/ml)	extent of growth: maximal OD630 over 24 hr divided by maximal OD of control (control = 1) (Actinomyces naeslundii; 25 μmol/ml)	extent of growth: maximal OD630 over 24 hr divided by maximal OD of control (control = 1) (Prevotella intermedia; 5 μmol/ml)	extent of growth: maximal OD630 over 24 hr divided by maximal OD of control (control = 1) (Prevotella intermedia; 10 μmol/ml)	extent of growth: maximal OD630 over 24 hr divided by maximal OD of control (control = 1) (Prevotella intermedia; 20 μmol/ml)	extent of growth: maximal OD630 over 24 hr divided by maximal OD of control (control = 1) (Prevotella intermedia; 25 μmol/ml)	extent of growth: maximal OD630 over 24 hr divided by maximal OD of control (control = 1) ([1]; 5 μmol/ml)	extent of growth: maximal OD630 over 24 hr divided by maximal OD of control (control = 1) ([1]; 10 μmol/ml)	extent of growth: maximal OD630 over 24 hr divided by maximal OD of control (control = 1) ([1]; 20 μmol/ml)	extent of growth: maximal OD630 over 24 hr divided by maximal OD of control (control = 1) ([1]; 25 μmol/ml)	other results
OC[C@@H](O)[C@@H](O[C@H]1O[C@H](CO)[C@H](O)[C@H](O)[C@H]1O)[C@H](O)[C@@H](O)CO [D-Lactitol, 4-O-α-D-galactopyranosyl-D-glucitol]	0.8614	0.9554	1.0275	1.0300	0.8996	0.8742	0.8416	0.8337	1.0156	1.0334	1.0688	1.0686	0.9178	0.9210	0.9185	0.9036	0.7044	0.7052	0.6952	0.7095	extent of growth: maximal OD630 over 24 hr divided by maximal OD of control (control = 1) (Tannerella forsythia; 5 μmol/ml): 0.9351; extent of growth: maximal OD630 over 24 hr divided by maximal OD of control (control = 1) (Tannerella forsythia; 10 μmol/ml): 0.9434; extent of growth: maximal OD630 over 24 hr divided by maximal OD of control (control = 1) (Tannerella forsythia; 20 μmol/ml): 0.9426; extent of growth: maximal OD630 over 24 hr divided by maximal OD of control (control = 1) (Tannerella forsythia; 25 μmol/ml): 0.9367; extent of growth: maximal OD630 over 24 hr divided by maximal OD of control (control = 1) (Streptococcus sobrinus; 5 μmol/ml): 1.0650; extent of growth: maximal OD630 over 24 hr divided by maximal OD of control (control = 1) (Streptococcus sobrinus; 10 μmol/ml): 1.0189; extent of growth: maximal OD630 over 24 hr divided by maximal OD of control (control = 1) (Streptococcus sobrinus; 20 μmol/ml): 1.0335; extent of growth: maximal OD630 over 24 hr divided by maximal OD of control (control = 1) (Streptococcus sobrinus; 25 μmol/ml): 1.0163; extent of growth: maximal OD630 over 24 hr divided by maximal OD of control (control = 1) (Veillonella parvula; 5 μmol/ml): 0.8722; extent of growth: maximal OD630 over 24 hr divided by maximal OD of control (control = 1) (Veillonella parvula; 10 μmol/ml): 0.8854; extent of growth: maximal OD630 over 24 hr divided by maximal OD of control (control = 1) (Veillonella parvula; 20 μmol/ml): 0.8909; extent of growth: maximal OD630 over 24 hr divided by maximal OD of control (control = 1) (Veillonella parvula; 25 μmol/ml): 0.9054; extent of growth: maximal OD630 over 24 hr divided by maximal OD of control (control = 1) (Streptococcus mitis; 5 μmol/ml): 0.8694; extent of growth: maximal OD630 over 24 hr divided by maximal OD of control (control = 1) (Streptococcus mitis; 10 μmol/ml): 0.9020; extent of growth: maximal OD630 over 24 hr divided by maximal OD of control (control = 1) (Streptococcus mitis; 20 μmol/ml): 0.9151; extent of growth: maximal OD630 over 24 hr divided by maximal OD of control (control = 1) (Streptococcus mitis; 25 μmol/ml): 0.8839; extent of growth: maximal OD630 over 24 hr divided by maximal OD of control (control = 1) (Streptococcus gordonii; 5 μmol/ml): 0.9828; extent of growth: maximal OD630 over 24 hr divided by maximal OD of control (control = 1) (Streptococcus gordonii; 10 μmol/ml): 0.9945; extent of growth: maximal OD630 over 24 hr divided by maximal OD of control (control = 1) (Streptococcus gordonii; 20 μmol/ml): 0.9931; extent of growth: maximal OD630 over 24 hr divided by maximal OD of control (control = 1) (Streptococcus gordonii; 25 μmol/ml): 1.0101
OC[C@H]1O[C@@](O)(CO)[C@@H](O[C@H]2O[C@H](CO)[C@@H](O)[C@H](O)[C@H]2O)[C@@H]1O [D-Turanose, α-D-glucopyranosyl-(1→3)-α-D-fructofuranose]	0.3631	0.3079	0.2558	0.2348	0.9568	0.9629	0.9558	0.9630	0.9281	0.9561	0.9443	0.9441	1.1488	1.1312	1.0407	0.9664	0.7962	0.8318	0.8672	0.8368	extent of growth: maximal OD630 over 24 hr divided by maximal OD of control (control = 1) (Tannerella forsythia; 5 μmol/ml): 0.9443; extent of growth: maximal OD630 over 24 hr divided by maximal OD of control (control = 1) (Tannerella forsythia; 10 μmol/ml): 0.9445; extent of growth: maximal OD630 over 24 hr divided by maximal OD of control (control = 1) (Tannerella forsythia; 20 μmol/ml): 0.9299; extent of growth: maximal OD630 over 24 hr divided by maximal OD of control (control = 1) (Tannerella forsythia; 25 μmol/ml): 0.9298; extent of growth: maximal OD630 over 24 hr divided by maximal OD of control (control = 1) (Streptococcus sobrinus; 5 μmol/ml): 1.1731; extent of growth: maximal OD630 over 24 hr divided by maximal OD of control (control = 1) (Streptococcus sobrinus; 10 μmol/ml): 1.1323; extent of growth: maximal OD630 over 24 hr divided by maximal OD of control (control = 1) (Streptococcus sobrinus; 20 μmol/ml): 1.0466; extent of growth: maximal OD630 over 24 hr divided by maximal OD of control (control = 1) (Streptococcus sobrinus; 25 μmol/ml): 1.0760; extent of growth: maximal OD630 over 24 hr divided by maximal OD of control (control = 1) (Veillonella parvula; 5 μmol/ml): 1.0000; extent of growth: maximal OD630 over 24 hr divided by maximal OD of control (control = 1) (Veillonella parvula; 10 μmol/ml): 0.9980; extent of growth: maximal OD630 over 24 hr divided by maximal OD of control (control = 1) (Veillonella parvula; 20 μmol/ml): 0.9904; extent of growth: maximal OD630 over 24 hr divided by maximal OD of control (control = 1) (Veillonella parvula; 25 μmol/ml): 1.0049; extent of growth: maximal OD630 over 24 hr divided by maximal OD of control (control = 1) (Streptococcus mitis; 5 μmol/ml): 1.4244; extent of growth: maximal OD630 over 24 hr divided by maximal OD of control (control = 1) (Streptococcus mitis; 10 μmol/ml): 1.4274; extent of growth: maximal OD630 over 24 hr divided by maximal OD of control (control = 1) (Streptococcus mitis; 20 μmol/ml): 1.3589; extent of growth: maximal OD630 over 24 hr divided by maximal OD of control (control = 1) (Streptococcus mitis; 25 μmol/ml): 1.2710; extent of growth: maximal OD630 over 24 hr divided by maximal OD of control (control = 1) (Streptococcus gordonii; 5 μmol/ml): 1.0397; extent of growth: maximal OD630 over 24 hr divided by maximal OD of control (control = 1) (Streptococcus gordonii; 10 μmol/ml): 1.0491; extent of growth: maximal OD630 over 24 hr divided by maximal OD of control (control = 1) (Streptococcus gordonii; 20 μmol/ml): 1.0248; extent of growth: maximal OD630 over 24 hr divided by maximal OD of control (control = 1) (Streptococcus gordonii; 25 μmol/ml): 1.0226
